# Laboratory results as given in paper PMC10999543, “Identification of kinase modulators as host-directed therapeutics against intracellular methicillin-resistant Staphylococcus aureus” (Frontiers in Cellular and Infection Microbiology, 2024).
# Read-outs that look alike come from different tables or passages of the source.
# Experiments:
# HeLa cells = assay: Compound screen by flow cytometry: HeLa cell count as surrogate readout of cell viability (z-scoreHeLa); format: cell-based, human; conditions: for cell count rep 1 / z-scoreHeLa rep 1: replicate 1; for cell count rep 2 / z-scoreHeLa rep 2: replicate 2; for cell count rep 3 / z-scoreHeLa rep 3: replicate 3; for z-scoreHeLa mean: mean of 3 replicates
# Summary of the method: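 HeLa cells were infected with GFP-MRSA (mean MOI 6.8 ± 4.6) for 1 h, and extracellular bacteria were killed with 30 µg/ml gentamicin. Cells were then incubated overnight with kinase inhibitors in 5 µg/ml gentamicin, in triplicate against DMSO controls. Flow-cytometric cell count served as a viability surrogate, expressed as a plate z-score.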
# intracellular MRSA = format: cell-based, Staphylococcus aureus; conditions: for %GFP+ rep 1 / z-scoreMRSA+ rep 1: replicate 1; for %GFP+ rep 2 / z-scoreMRSA+ rep 2: replicate 2; for %GFP+ rep 3 / z-scoreMRSA+ rep 3: replicate 3; for z-scoreMRSA+ mean: mean of 3 replicates
# Summary of the method: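 HeLa, MRSA-GFP at MOI ~6.8, 1 h infection; gentamicin 30 µg/ml for 15 min; inhibitor plus gentamicin 5 µg/ml overnight, 37°C/5% CO2; triplicate plates; FACS %GFP+ and cell count; hit = z ≤ -2 MRSA+, z ≥ -3 count.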
# [1] = PKIS compound screen raw data, HeLa cell count
# [2] = compound screen, HeLa cell count
# [3] = PKIS compound screen raw data, MRSA-infected HeLa cells
# [4] = Yes/No: effect without cell death
# [5] = compound screen, MRSA-infected HeLa cells
# [6] = PKIS compounds raw data, HeLa cell count
# [7] = PKIS compounds raw data, MRSA-infected HeLa cells
# [8] = PKIS compound screen, HeLa cell count
# [9] = PKIS compound screen, Yes/No call
# [10] = PKIS compound screen, Yes/No call on z-scoreHeLa
# [11] = PKIS compound screen, MRSA-infected HeLa cells
# [12] = PKIS compound screen, Yes/No call (effect without cell death)
# [13] = PKIS compound screen, Yes/No call on z-scoreMRSA+
SMILES,cell count rep 1 (HeLa cells; [1]),cell count rep 2 (HeLa cells; [1]),cell count rep 3 (HeLa cells; [1]),cell death (HeLa cells; Yes/No call from z-scoreHeLa),z-scoreHeLa mean (HeLa cells; [2]),z-scoreHeLa rep 1 (HeLa cells; [2]),z-scoreHeLa rep 2 (HeLa cells; [2]),z-scoreHeLa rep 3 (HeLa cells; [2]),%GFP+ rep 1 (intracellular MRSA; [3]),%GFP+ rep 2 (intracellular MRSA; [3]),%GFP+ rep 3 (intracellular MRSA; [3]),effect (intracellular MRSA; Yes/No call from z-scoreMRSA+),hit (intracellular MRSA; [4]),cell count rep 1 (HeLa cells; [6]),cell count rep 2 (HeLa cells; [6]),cell count rep 3 (HeLa cells; [6]),%GFP+ rep 1 (intracellular MRSA; [7]),%GFP+ rep 2 (intracellular MRSA; [7]),%GFP+ rep 3 (intracellular MRSA; [7]),hit (intracellular MRSA; [12]),other results
O=C(Nc1n[nH]c2cc(-c3cccs3)ccc12)C1CC1 [SB-731284],2848,2463,2761,No,-1.36,-1.08,-1.41,-1.57,22.6%,23.6%,20.0%,No,No,,,,,,,,z-scoreMRSA+ mean (intracellular MRSA; [5]): -0.35; z-scoreMRSA+ rep 1 (intracellular MRSA; [5]): -0.62; z-scoreMRSA+ rep 2 (intracellular MRSA; [5]): 0.24; z-scoreMRSA+ rep 3 (intracellular MRSA; [5]): -0.66
COc1cccc(-n2nc(C)c3c(N/N=C(\C)c4ccncc4)ncnc32)c1 [GW809885X],,,,No,0.65,-0.42,2.02,0.35,,,,No,No,4315,6939,7689,10.1%,9.2%,10.0%,,z-scoreMRSA+ mean (intracellular MRSA; [5]): -1.40; z-scoreMRSA+ rep 1 (intracellular MRSA; [5]): -0.98; z-scoreMRSA+ rep 2 (intracellular MRSA; [5]): -1.45; z-scoreMRSA+ rep 3 (intracellular MRSA; [5]): -1.76
CNc1nc(-c2ccc3c(N)n[nH]c3c2)cc(N2C[C@@H](C(=O)NC3CCCCC3)OC[C@H]2C)n1 [GSK2375584A],30717,29074,21029,No,0.38,0.09,0.65,0.41,21.4%,23.1%,26.2%,No,No,,,,,,,,z-scoreMRSA+ mean (intracellular MRSA; [5]): 1.02; z-scoreMRSA+ rep 1 (intracellular MRSA; [5]): 0.70; z-scoreMRSA+ rep 2 (intracellular MRSA; [5]): 1.01; z-scoreMRSA+ rep 3 (intracellular MRSA; [5]): 1.36
COc1cc(Nc2nccc(N3CCC(NC(=O)C(C)c4ccc(Cl)cc4)C3)n2)cc(OC)c1OC (stereo not drawn) [GSK1379757A],34106,27085,22729,,,,,,24.2%,23.0%,24.9%,,,6143,6440,6051,31.0%,30.0%,30.8%,No,z-scoreHeLa mean (HeLa cells; [8]): 0.57; z-scoreHeLa rep 1 (HeLa cells; [8]): 0.66; z-scoreHeLa rep 2 (HeLa cells; [8]): 0.31; z-scoreHeLa rep 3 (HeLa cells; [8]): 0.74; cell death (HeLa cells; [9]): No; cell death (HeLa cells; [10]): No; z-scoreHeLa mean (HeLa cells; PKIS compound screen): 0.21; z-scoreHeLa rep 1 (HeLa cells; PKIS compound screen): 0.06; z-scoreHeLa rep 2 (HeLa cells; PKIS compound screen): 0.29; z-scoreHeLa rep 3 (HeLa cells; PKIS compound screen): 0.29; z-scoreMRSA+ mean (intracellular MRSA; [11]): 1.14; z-scoreMRSA+ rep 1 (intracellular MRSA; [11]): 1.45; z-scoreMRSA+ rep 2 (intracellular MRSA; [11]): 0.98; z-scoreMRSA+ rep 3 (intracellular MRSA; [11]): 1.00; effect (intracellular MRSA; [9]): No; effect (intracellular MRSA; [13]): No; z-scoreMRSA+ mean (intracellular MRSA; PKIS compound screen): 0.73; z-scoreMRSA+ rep 1 (intracellular MRSA; PKIS compound screen): 0.77; z-scoreMRSA+ rep 2 (intracellular MRSA; PKIS compound screen): 0.76; z-scoreMRSA+ rep 3 (intracellular MRSA; PKIS compound screen): 0.65
NCCCC(NC(=O)c1cc(Br)c(-c2ccnc3[nH]ccc23)s1)c1ccccc1 (stereo not drawn) [GSK1287544A],6296,6004,7754,No,1.43,1.40,1.31,1.59,26.9%,27.6%,25.5%,No,No,,,,,,,,z-scoreMRSA+ mean (intracellular MRSA; [5]): 0.86; z-scoreMRSA+ rep 1 (intracellular MRSA; [5]): 0.38; z-scoreMRSA+ rep 2 (intracellular MRSA; [5]): 1.21; z-scoreMRSA+ rep 3 (intracellular MRSA; [5]): 0.99
CS(=O)(=O)CCNCc1nc(-c2ccc3ncnc(Nc4ccc(OCc5ccccc5)c(Cl)c4)c3c2)cs1 [GW582764A],3605,3519,4776,No,-0.48,-0.54,-0.60,-0.29,15.6%,19.2%,19.4%,No,No,,,,,,,,z-scoreMRSA+ mean (intracellular MRSA; [5]): -1.31; z-scoreMRSA+ rep 1 (intracellular MRSA; [5]): -2.25; z-scoreMRSA+ rep 2 (intracellular MRSA; [5]): -0.83; z-scoreMRSA+ rep 3 (intracellular MRSA; [5]): -0.84
CCCNC(=O)Nc1ccc(N(C)c2ccnc(NC3CC3)n2)cc1 [GW818933X],29169,27486,16622,,,,,,16.2%,17.1%,17.2%,,,6971,6954,6744,27.9%,27.2%,26.9%,No,z-scoreHeLa mean (HeLa cells; [8]): -0.08; z-scoreHeLa rep 1 (HeLa cells; [8]): -0.17; z-scoreHeLa rep 2 (HeLa cells; [8]): 0.38; z-scoreHeLa rep 3 (HeLa cells; [8]): -0.45; cell death (HeLa cells; [9]): No; cell death (HeLa cells; [10]): No; z-scoreHeLa mean (HeLa cells; PKIS compound screen): 0.64; z-scoreHeLa rep 1 (HeLa cells; PKIS compound screen): 0.56; z-scoreHeLa rep 2 (HeLa cells; PKIS compound screen): 0.63; z-scoreHeLa rep 3 (HeLa cells; PKIS compound screen): 0.73; z-scoreMRSA+ mean (intracellular MRSA; [11]): -0.81; z-scoreMRSA+ rep 1 (intracellular MRSA; [11]): -0.69; z-scoreMRSA+ rep 2 (intracellular MRSA; [11]): -0.63; z-scoreMRSA+ rep 3 (intracellular MRSA; [11]): -1.10; effect (intracellular MRSA; [9]): No; effect (intracellular MRSA; [13]): No; z-scoreMRSA+ mean (intracellular MRSA; PKIS compound screen): 0.11; z-scoreMRSA+ rep 1 (intracellular MRSA; PKIS compound screen): 0.16; z-scoreMRSA+ rep 2 (intracellular MRSA; PKIS compound screen): 0.22; z-scoreMRSA+ rep 3 (intracellular MRSA; PKIS compound screen): -0.07
c1ccc(COc2ccc(Nc3ncnc4ccc(-c5ccco5)cc34)cc2)cc1 [GW284372X],,,,,,,,,,,,,,4410,5123,9333,11.1%,12.1%,12.2%,No,cell death (HeLa cells; [9]): No; z-scoreHeLa mean (HeLa cells; PKIS compound screen): 0.48; z-scoreHeLa rep 1 (HeLa cells; PKIS compound screen): -0.33; z-scoreHeLa rep 2 (HeLa cells; PKIS compound screen): 0.65; z-scoreHeLa rep 3 (HeLa cells; PKIS compound screen): 1.13; effect (intracellular MRSA; [9]): No; z-scoreMRSA+ mean (intracellular MRSA; PKIS compound screen): -0.74; z-scoreMRSA+ rep 1 (intracellular MRSA; PKIS compound screen): -0.66; z-scoreMRSA+ rep 2 (intracellular MRSA; PKIS compound screen): -0.47; z-scoreMRSA+ rep 3 (intracellular MRSA; PKIS compound screen): -1.09
CCS(=O)(=O)c1ccc(OC)c(Nc2nccc(N(C)c3ccc4c(C)n[nH]c4c3)n2)c1 [GW654652C],21654,25320,35112,,,,,,13.7%,14.6%,13.9%,,,,,,,,,No,z-scoreHeLa mean (HeLa cells; [8]): -0.80; z-scoreHeLa rep 1 (HeLa cells; [8]): 0.23; z-scoreHeLa rep 2 (HeLa cells; [8]): -1.77; z-scoreHeLa rep 3 (HeLa cells; [8]): -0.86; cell death (HeLa cells; [10]): No; z-scoreMRSA+ mean (intracellular MRSA; [11]): -1.43; z-scoreMRSA+ rep 1 (intracellular MRSA; [11]): -1.32; z-scoreMRSA+ rep 2 (intracellular MRSA; [11]): -1.18; z-scoreMRSA+ rep 3 (intracellular MRSA; [11]): -1.79; effect (intracellular MRSA; [13]): No
COc1cc(Nc2ncc3c(C)nc(-c4cc5ccccc5[nH]4)n3n2)cc(OC)c1OC [GW869516X],,,,,,,,,,,,,,8188,8134,8115,22.6%,23.8%,22.8%,No,cell death (HeLa cells; [9]): No; z-scoreHeLa mean (HeLa cells; PKIS compound screen): 1.43; z-scoreHeLa rep 1 (HeLa cells; PKIS compound screen): 1.29; z-scoreHeLa rep 2 (HeLa cells; PKIS compound screen): 1.41; z-scoreHeLa rep 3 (HeLa cells; PKIS compound screen): 1.60; effect (intracellular MRSA; [9]): No; z-scoreMRSA+ mean (intracellular MRSA; PKIS compound screen): -0.71; z-scoreMRSA+ rep 1 (intracellular MRSA; PKIS compound screen): -0.87; z-scoreMRSA+ rep 2 (intracellular MRSA; PKIS compound screen): -0.43; z-scoreMRSA+ rep 3 (intracellular MRSA; PKIS compound screen): -0.83
Cc1ccc(S(=O)(=O)Nc2ccc(Nc3nccc(Nc4cccc5[nH]ncc45)n3)cc2)cc1 [GSK581271A],,,,,,,,,,,,,,6603,6528,6401,23.9%,26.1%,25.7%,No,cell death (HeLa cells; [9]): No; z-scoreHeLa mean (HeLa cells; PKIS compound screen): 0.40; z-scoreHeLa rep 1 (HeLa cells; PKIS compound screen): 0.33; z-scoreHeLa rep 2 (HeLa cells; PKIS compound screen): 0.35; z-scoreHeLa rep 3 (HeLa cells; PKIS compound screen): 0.51; effect (intracellular MRSA; [9]): No; z-scoreMRSA+ mean (intracellular MRSA; PKIS compound screen): -0.30; z-scoreMRSA+ rep 1 (intracellular MRSA; PKIS compound screen): -0.62; z-scoreMRSA+ rep 2 (intracellular MRSA; PKIS compound screen): 0.0118; z-scoreMRSA+ rep 3 (intracellular MRSA; PKIS compound screen): -0.29
